# Assay results reported in patent US20220125877A1, “METHOD FOR TREATING COLORECTAL CANCER” (SUN YAT-SEN UNIVERSITY, priority 2019, published 2022).
# Assays:
# LoVo cells = experiment: Azacitidine treatment: MATE1 expression and anti-proliferation effect of metformin; type: cell-based, human; conditions: FIGS. 16E-F
# [1] = system: KRAS (G13D) mutation SW48 cell line; experiment: as above; type: cell-based, human; conditions: FIGS. 16E-F
smiles,measurement,setting,value
Nc1ncn([C@@H]2O[C@H](CO)[C@@H](O)[C@H]2O)c(=O)n1 [azacitidine],expression of MATE1,LoVo cells,up-regulate the expression of MATE1
same,effect on the anti-tumor proliferation effect of metformin,LoVo cells; with metformin,inhibiting the anti-tumor proliferation effect of metformin
same,expression of MATE1,[1],up-regulate the expression of MATE1
same,effect on the anti-tumor proliferation effect of metformin,[1]; with metformin,inhibiting the anti-tumor proliferation effect of metformin
